Values of other authors in US20160208299A1, “PRODUCTION OF ISOQUINOLINE ALKALOIDS AND FLAVONOIDS IN PLANT CELL CULTURES OF GOLDENSEAL (HYDRASTIS CANADENSIS)” (DIANAPLANTSCIENCES INC., priority 2015, published 2016).

How the values were obtained:
E. coli = details: cells lining the walls of the urinary tract

COc1ccc2cc3[n+](cc2c1OC)CCc1cc2c(cc1-3)OCO2 [berberine]
effective: effectiveness against parasite (Giardia lamblia) | effectiveness against parasite (Trichomonas vaginalis) | effectiveness in treating infection by blocking the adhesion of E. coli (E. coli) | effectiveness against parasite (Entamoeba histolytica)
